For 14 compounds, MIC, Resistance level and Minimum inhibitory concentration results are on record in US20240188569A1, “NEW YEAST STRAIN AND ITS USES FOR THE CONTROL OF PHYTOPATHOGENS” (AGROVENTURES LLC, priority 2021, published 2024).

≈ marks a conversion by molar mass, not a printed value.

The experiment relates to PT22AV. The experiment in a line: Minimum inhibitory concentration of fungicides in NYDA agar. Conditions: for MIC: Papiliotrema terrestris, read-out: Minimum inhibitory concentration; for Resistance level: resistance level of PT22AV to the fungicide; for Minimum inhibitory concentration: fungicide against PT22AV, incorporated in NYDA agar.

As for `CCCCNC(=O)n1c(NC(=O)OC)nc2ccccc21` [Benomyl], the MIC is 1000 µg/mL (≈ 3.44 mM) and the Resistance level entry is “Resistant”.

With Mancozeb, the Minimum inhibitory concentration worked out at 300 µg/mL and the Resistance level entry is “Sensitive”.

Turning to `[Cl-].[Cu+2].[Cu+2].[OH-].[OH-].[OH-]` [Copper oxychloride], the Minimum inhibitory concentration worked out at 500 µg/mL and the Resistance level entry is “Resistant”.

As for `CO/C=C(/C(=O)OC)c1ccccc1Oc1cc(Oc2ccccc2C#N)ncn1` [Azoxystrobin], the Minimum inhibitory concentration was determined as 1000 µg/mL (≈ 2.48 mM) and the Resistance level entry is “Resistant”.

Turning to `C=CC1(C)OC(=O)N(c2cc(Cl)cc(Cl)c2)C1=O` (stereo not drawn) [Vinclozolin], the MIC is 1000 µg/mL (≈ 3.5 mM) and the Resistance level result is reported as “Resistant”.

In the case of `S1SSSSSSS1` [Sulfur], the MIC was determined as 2000 µg/mL (≈ 7.8 mM) and the Resistance level result was “Resistant”.

As for `N#Cc1c[nH]cc1-c1cccc2c1OC(F)(F)O2` [Fludioxonil], the MIC stood at 1000 µg/mL (≈ 4.03 mM).

`CC12CC1(C)C(=O)N(c1cc(Cl)cc(Cl)c1)C2=O` (stereo not drawn) [Procymidone]: the MIC stood at 1000 µg/mL (≈ 3.52 mM) and the Resistance level result is “Resistant”.

As to `c1ccc2[nH]c(-c3cscn3)nc2c1` [Thiabendazole], the MIC was 1000 µg/mL (≈ 4.97 mM) and the Resistance level result was “Resistant”.

Take `COC(=O)Nc1nc2ccccc2[nH]1` [Carbendazim]: the MIC worked out at 1000 µg/mL (≈ 5.23 mM) and the Resistance level entry is “Resistant”.

Turning to `CC(C)(C)C(O)(CCc1ccc(Cl)cc1)Cn1cncn1` (stereo not drawn) [Tebuconazole], the MIC worked out at 100 µg/mL (≈ 0.325 mM) and the Resistance level entry is listed as “Sensitive”.

Take `CCCC(Cn1cncn1)c1ccc(Cl)cc1Cl` (stereo not drawn) [Penconazol]: the MIC was 200 µg/mL (≈ 0.704 mM) and the Resistance level result is listed as “Sensitive”.

Take `CON=C(C(=O)OC)c1ccccc1CON=C(C)c1cccc(C(F)(F)F)c1` [Trifloxystrobin]: the MIC was 1000 µg/mL (≈ 2.45 mM) and the Resistance level entry is on record as “Resistant”.

Take `C=CCOC(Cn1ccnc1)c1ccc(Cl)cc1Cl` (stereo not drawn) [Imazalil]: the MIC came to 300 µg/mL (≈ 1.01 mM) and the Resistance level result was “Sensitive”.
